The values below come from patent US9446015B2, “Quinone based nitric oxide donating compounds for ophthalmic use” (NICOX SCIENCE IRELAND, priority 2012, dated 2016).

Assay [1] has as its system isolated aortas from rats. Briefly: Ex vivo tolerance evaluation, vascular response of isolated rat aortas. In kind it is cell-based. To be noted: 5-day oral treatment; 5-ISMN 30 mg/kg, Compound (6) 100 mg/kg. The method, then: Thoracic aortas from male New Zealand rabbits or male Sprague Dawley (SD) were used. The aortas were placed immediately in Krebs-HEPES buffer (pH 7.4; composition mM: NaCl 130.0, KCl 3.7, NaHCO3 14.9, KH2PO4 1.2, MgSO4.7H2O 1.2, Glucose 11.0, HEPES 10.0, CaCl2.2H2O 1.6). Connective tissue was removed and aortas were cut into ring segments (4-5 mm in length). Each ring was placed in a 5 mL tissue bath filled with Krebs-HEPES buffer (37° C.) aerated with 95% O2 and 5% CO2 and was attached to a force transducer (Grass FT03), connected to a BIOPAC MP150 System for measurement of the isometric tension. Preparations were allowed to equilibrate for 1 h at a resting tension of 2 g for rabbit aortas and 1 g for rat aortas with changes of the buffer every 15 min. Then the rings were stimulated by exposure to 90 mM KCl (3 times) with intervening washings.
Rat aorta. After equilibration, rat aortas were precontracted with KCl (90 mM) and, when the contraction was stable, a cumulative concentration-response curve to acetylcholine (ACh, 0.01-100 μM) was added. After washout, the rings were precontracted again with KCl (90 mM). When a steady-state level of contraction was obtained, a cumulative concentration-response curve to the tested compounds (0.01-100 μM) was obtained.
Data analysis. Results are given as mean±SEM. Vascular responses are expressed as percentage relaxation and plotted vs concentration. The sensitivity of isolated aorta to different vasodilators is expressed as the concentration that elicited 50% of the maximal responses (EC50). Responses are quantified in terms of EC50 and Emax (maximal vasodilating effect) values, obtained from the concentration-response curve by nonlinear curve fitting, using GraphPad software.
Tolerance to nitrate was further investigated assessing the vascular effects of Compound (6) following repeated treatment compared with 5-ISMN. The vascular response to the compound itself was assessed on isolated aortas from rats orally treated for 5 days with Compound (6) (100 mg/kg). The vascular response was performed as described in Example 6.
Vascular responses were performed 1 h (ISMN) or 3 h (Compound (6)) after the last administration, the concentrations of tested compound that elicited the 50% of the maximal responses (EC50) are shown in Table 4.

For assay [2], the system named is lipidic peroxidation of membrane lipids in rat hepatocytes (hepatic microsomal membranes). Put plainly: In vitro antioxidant activity (TBARS test). In kind it is biochemical. To be noted: Method A (ADP-FeCl3 and NADPH); inhibition of TBARS production after 30 min; read-out: Antioxidant activity IC50 μM (CL 95%). The procedure:
The antioxidant properties of compounds (6) (disclosed in example 1) and compound (23) (disclosed in example 19) and reference antioxidant compounds were assessed after NADPH-induced lipidic peroxidation of membrane lipids in rat hepatocytes using the detection of 2-thiobarbituric acid reactive substances (TBARS) by visible spectroscopy.
Hepatic microsomal membranes from male Wistar rats (200-250 g) were prepared by differential centrifugation (8000 g, 20 min; 120000 g, 1 h) in a HEPES/sucrose buffer (10 mM, 250 mM, pH 7.4) and stored at −80° C. Incubation was performed at 37° C. in a Tris-HCl/KCl (100 mM/150 mM, pH 7.4) containing microsomal membranes (2 mg prot/mL), sodium ascorbate (100 μM), and DMSO solutions of the tested compounds. Lipid peroxidation was initiated by adding ADP-FeCl3 and NADPH (Method A) or 2.5 μM FeSO4 (Method B) (as described by Boschi D. et al., J. Med. Chem. 2006, 49:2886-2897). Aliquots were taken from the incubation mixture at 5, 15, and 30 min and treated with trichloroacetic acid (TCA) 10% w/v. Lipid peroxidation was assessed by spectrophotometric (543 nm) determination of the TBARS consisting mainly of malondialdehyde (MDA). TBARS concentrations (expressed in nmol/mg protein) were obtained by interpolation with a MDA standard curve. The antioxidant activity of tested compounds was evaluated as the percent inhibition of TBARS production with respect to control samples, using the values obtained after 30 min of incubation. IC50 values were calculated by nonlinear regression analysis.

The IC50 is the concentration at which inhibition is half-maximal. Regarding `COC1=C(OC)C(=O)C(CCCCCCCCCCO[N+](=O)[O-])=C(C)C1=O` [Compound (6), 10-(4,5-dimethoxy-2-methyl-3,6-dioxocyclohexa-1,4-dienyl)decyl nitrate], the “vascular sensitivity of aortas of treated animals to the compound itself versus vehicle/control arteries” value in assay [1] is “showed the same sensitivity”. Moreover, the IC50 in assay [2] stood at 2 µM.
